Measured values: US20190298735A1, “TREATMENT AND PREVENTION OF CLOSTRIDIUM DIFFICILE COLITIS USING MISOPROSTOL” (Vanderbilt University, priority 2016, published 2019)
Entries after “also recorded” stand apart in the source; their conditions may differ.

Columns and labels:
[1] = tested on: C. difficile; assay: Tissue PGE2 (ELISA) and histological colitis score in C. difficile infected mice treated with indomethacin; format: in vivo; details: for tissue damage and acute inflammation (colitis): blinded histological score: edema, neutrophilic inflammation, epithelial damage; for tissue PGE2 levels: indomethacin gavage once daily until day +4, ELISA
Description: FIG. 3. […] (A) Mice were infected with C. difficile and treated with indomethacin by gavage once daily starting on the day of infection until mice were euthanized on day +4. Tissue PGE2 concentrations were measured by ELISA. n=5 mice per group. (B) Histological assessment of colitis was performed in a blinded fashion. The score incorporates edema, neutrophilic inflammation, and epithelial damage. (C and D) Tissue cytokine and chemokine concentrations were measured by ELISA. n=5 mice per group. *P<0.05.

[2] = tested on: NAP1 C. difficile strain M7404; format: in vivo, C57BL/6 mice; details: mice, NSAID given before or after infection, clinical NAP1/027 isolate; indomethacin 10 mg/kg gavage, ibuprofen 5 mg/kg in drinking water
[3] = target: T1, prostaglandin E2 receptor 4 (EP4) receptor (Mus musculus, UniProt P32240); details: another mouse model, oral administration; cited from earlier work
T1 construct: endogenous in cells; host or cells: mouse, in vivo (colon tissue); result quoted from Watanabe et al. 2015
T1 sequence (P32240 whole entry): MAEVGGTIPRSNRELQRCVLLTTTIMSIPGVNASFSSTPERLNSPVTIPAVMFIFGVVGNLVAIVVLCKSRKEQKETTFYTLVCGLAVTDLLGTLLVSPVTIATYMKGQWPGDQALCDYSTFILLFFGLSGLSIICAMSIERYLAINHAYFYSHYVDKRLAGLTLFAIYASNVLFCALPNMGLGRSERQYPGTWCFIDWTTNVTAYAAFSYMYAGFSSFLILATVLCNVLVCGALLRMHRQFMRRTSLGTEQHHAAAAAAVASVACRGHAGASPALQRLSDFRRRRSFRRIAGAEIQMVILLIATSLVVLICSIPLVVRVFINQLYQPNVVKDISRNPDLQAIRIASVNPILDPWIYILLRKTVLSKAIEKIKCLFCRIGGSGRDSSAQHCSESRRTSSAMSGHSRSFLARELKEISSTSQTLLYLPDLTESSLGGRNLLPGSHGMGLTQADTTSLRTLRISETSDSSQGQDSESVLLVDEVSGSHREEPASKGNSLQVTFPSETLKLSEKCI

[4] = target: T1, prostaglandin E2 receptor 4 (EP4) receptor; details: oral administration, mouse model; cited from earlier work
[5] = tested on: strain M7404; assay: Misoprostol in indomethacin-exposed CDI mice; format: in vivo, Female C57BL/6 mice
[6] = human; cited from earlier work
[7] = tested on: NAP1/BI/027 strain M7404; assay: Misoprostol in acute CDI mouse model (survival, FITC-dextran intestinal permeability, diarrhea); format: in vivo, mice; details: for CDI severity: mice, M7404 spores, daily misoprostol IP vs vehicle
[8] = tested on: human esophageal epithelial (HET-1A) cells; details: cited from earlier work
[9] = tested on: PGE2 EP receptors; details: cited from earlier work
[10] = tested on: esophageal ulcer; details: rats, cited from earlier work
[11] = tested on: C. difficile strain 630; assay: Colonization levels of C. difficile in the cecum of infected mice; format: in vivo; details: strain 630, 96 hr post infection, misoprostol vs vehicle
Description: FIG. 5. […] (A) Mice were infected by gavage with 10^6 spores of the NAP1/BI/027 strain […] and treated daily with the PGE analogue misoprostol (or vehicle) by intraperitoneal (IP) injection. n=5 per group. (B) To assess intestinal permeability mice were infected with […] of […] and given misoprostol 20 μg/mouse by IP injection 30 min before infection, 24 hr post-infection and at the time of FITC-dextran treatment. 2 d post infection mice were gavaged with FITC-dextran or vehicle control, then euthanized 4 hr later and concentrations of FITC-dextran in plasma were determined (*P<0.05). (C) Colonization levels of C. difficile strain 630 in the cecum for infected mice exposed to misoprostol or vehicle 96 hr post infection (*P<0.05).

[12] = tested on: C. difficile; details: C. difficile-infected mice, cited from earlier work
[13] = mice; cited from earlier work

COc1ccc2c(c1)c(CC(=O)O)c(C)n2C(=O)c1ccc(Cl)cc1 [indomethacin]
tissue damage and acute inflammation (colitis) [1]: induced more tissue damage and acute inflammation
tissue damage and acute inflammation (colitis) ([1]; listed as Indomethacin): worsens colitis
tissue PGE2 levels [1]: suppressed tissue PGE2 levels
tissue PGE2 levels ([1]; listed as Indomethacin): inhibits PGE2 production
mortality in CDI [2]: higher mortality

Cc1cccc([C@@H](C)[C@H](O)/C=C/[C@@H]2[C@@H]3[C@H](C[C@H]2O)O/C(=C\CCCc2nn[nH]n2)C3(F)F)c1 [KAG-308]
colorectal carcinogenesis [3]: prevented colorectal carcinogenesis
onset of dextran sulfate sodium-induced colitis and mucosal healing [4]: suppressed onset of dextran sulfate sodium-induced colitis and promoted mucosal healing

CCCC[C@](C)(O)C/C=C/[C@H]1[C@H](O)CC(=O)[C@@H]1CCCCCCC(=O)OC (racemic) [misoprostol, (11a, 13E)-(±)-11,16-dihydroxy-16-methyl-9-oxoprost-13-en-1-oic acid methyl ester]
CDI in indomethacin-exposed mice ([5]; INDO 10 mg/kg days −2 and −1, 1×10^4 spores M7404, 20 mg misoprostol i.p. daily): improves CDI
survival, Log-rank (Mantel-Cox) test ([5]; mouse, in vivo, ip): not statistically significant
protection of colonic mucosa against mucosal insults [6]: potently protects human colonic mucosa
diarrhea ([7]; infected mice, misoprostol vs vehicle/placebo): reduced diarrhea; also recorded: fared significantly better
CDI severity [7]: reduced CDI severity
CDI severity ([7]; listed as Misoprostol): reduces CDI severity
death / survival ([7]; mouse, in vivo, ip): prevented death; also recorded: fared significantly better
VEGF expression [8]: stimulated VEGF expression
increase of intracellular cAMP levels [8]: 163 fold
phosphorylation of CREB [8]: induced phosphorylation of CREB
binding to PGE2 EP receptors [9]: binds all 4 of the PGE2 EP receptors
CREB phosphorylation, VEGF expression and angiogenesis ([10]; esophageal ulcer): enhanced phosphorylation of CREB, stimulated VEGF expression and angiogenesis
esophageal ulcer healing [10]: accelerated esophageal ulcer healing
C. difficile colonization levels [11]: reduced C. difficile colonization levels

CN[C@H](CC(C)C)C(=O)N[C@H]1C(=O)N[C@@H](CC(N)=O)C(=O)N[C@H]2C(=O)N[C@H]3C(=O)N[C@H](C(=O)N[C@H](C(=O)O)c4cc(O)cc(O)c4-c4cc3ccc4O)[C@H](O)c3ccc(c(Cl)c3)Oc3cc2cc(c3O[C@@H]2O[C@H](CO)[C@@H](O)[C@H](O)[C@H]2O[C@H]2C[C@](C)(N)[C@H](O)[C@H](C)O2)Oc2ccc(cc2Cl)[C@H]1O [vancomycin]
relapse of colitis after treatment ([12]; with increased colonization levels and toxin production): gradual return of colitis by day 16
resolution of colitis [12]: accelerates resolution of colitis

CCCCC[C@H](O)/C=C/[C@H]1[C@H](O)CC(=O)[C@@H]1C/C=C\CCCC(=O)O [PGE2, Prostaglandin E2]
colitis induced by DSS [13]: significantly improved colitis

Nc1ncnc2c1ncn2[C@@H]1O[C@@H]2COP(O)(=S)O[C@H]2[C@H]1O (some centres unmarked) [Rp-cAMP]
action on the effects of misoprostol (cAMP, CREB phosphorylation, VEGF expression) [8]: blocked

Nc1ncnc2c1ncn2[C@@H]1O[C@@H]2COP(O)(=S)O[C@H]2[C@H]1O (some centres unmarked) [Sp-cAMP]
action on the effects of misoprostol (cAMP, CREB phosphorylation, VEGF expression) [8]: mimicked
